ChEMBL document CHEMBL5543162, “Discovery of a Novel Orally Bioavailable FLT3-PROTAC Degrader for Efficient Treatment of Acute Myeloid Leukemia and Overcoming Resistance of FLT3 Inhibitors” (J Med Chem, 2024)
pIC50: −log10 of the molar value. Active and inactive are the calls of the source. The calls are words filed in the database; no cut-off is given here.

Tests used:
[1] = system: Protein cereblon/Receptor-type tyrosine-protein kinase FLT3 (Homo sapiens), P36888+Q96SW2 [UNDEFINED MUTATION]; assay: PROTAC activity at CRBN/FLT3-ITD mutant in human MOLM-13 cells assessed as decrease in STAT5 level incubated for 12 hrs by Western blot analysis; type: cell-based; conditions: dose <= 20.0 nM
[2] = system: Protein cereblon/Receptor-type tyrosine-protein kinase FLT3 (Homo sapiens), P36888+Q96SW2 [UNDEFINED MUTATION]; assay: PROTAC activity at CRBN/FLT3-ITD mutant in human MV4-11 cells assessed as decrease in ERK level incubated for 12 hrs by Western blot analysis; type: cell-based; conditions: dose <= 20.0 nM
[3] = Stability in dog liver microsomes assessed as hepatic clearance; type: ADME, Canis lupus familiaris, Microsome
[4] = Toxicity in nu/nu mouse xenografted with human MV4-11 cells assessed as damage in heart at 1.25 to 10 mg/kg, po administered daily for 2 weeks by H and E staining based analysis; type: organism-based; conditions: in vivo, 336 h, dose 1.25-10 mg/kg
[5] = Toxicity in NSG mouse xenografted with human MV4-11 cells expressing luciferase assessed as physiological change at 10 mg/kg, po administered daily for 3 weeks; type: organism-based; conditions: in vivo, 504 h
[6] = target: Protein cereblon/Receptor-type tyrosine-protein kinase FLT3 (Homo sapiens, UniProt P36888+Q96SW2); assay: PROTAC activity at CRBN/FLT3-ITD mutant in human MOLM-13 cells assessed as protein degradation by Western blot analysis; type: cell-based
[7] = system: MOLM-13; assay: Antiproliferative activity against Quizartinib-resistant human MOLM-13 cells incubated for 48 hrs by CCK8 assay; type: functional, cell-based; conditions: MOLM-13, 48 h
[8] = system: Protein cereblon/Receptor-type tyrosine-protein kinase FLT3 (Homo sapiens), P36888+Q96SW2 [UNDEFINED MUTATION]; assay: PROTAC activity at CRBN/FLT3-ITD mutant in human MV4-11 cells assessed as decrease in S6K level at 20 nM by Western blot analysis; type: cell-based; conditions: time <= 12.0 hrs, TDE = time-dependent effect
[9] = system: MOLM-13; assay: Antiproliferative activity against human MOLM-13 cells incubated for 48 hrs by CCK8 assay; type: functional, cell-based; conditions: MOLM-13, 48 h
[10] = system: MV4-11; assay: Antitumor activity against human MV4-11 cells xenografted with nude mouse assessed as decrease in tumor growth at 120 mg/kg, po administered daily measured after 3 days; type: functional, organism-based; conditions: time 3.0 day
[11] = system: Protein cereblon/Receptor-type tyrosine-protein kinase FLT3 (Homo sapiens), P36888+Q96SW2 [UNDEFINED MUTATION]; assay: PROTAC activity at CRBN/FLT3-ITD mutant in human MV4-11 cells assessed as protein degradation at 100 nM incubated for 24 hrs followed by compound washout measured upto 48 hrs by Western blot analysis; type: cell-based; conditions: time 72.0 hrs
[12] = system: MV4-11; assay: Induction of proapoptosis in human MV4-11 cells xenografted in nu/nu mouse assessed as increase in cleaved caspase-3 level at 1.25 to 10 mg/kg, po administered daily for 2 weeks; type: functional, organism-based; conditions: dose 1.25-10 mg/kg
[13] = system: MOLM-13; assay: Antiproliferative activity against Sunitinib-resistant human MOLM-13 cells incubated for 48 hrs by CCK8 assay; type: functional, cell-based; conditions: MOLM-13, 48 h
[14] = target: T1, Cytochrome P450 2C8 (Homo sapiens, UniProt P10632); assay: Inhibition of CYP2C8 (unknown origin); type: ADME
T1 sequence (P10632 whole entry): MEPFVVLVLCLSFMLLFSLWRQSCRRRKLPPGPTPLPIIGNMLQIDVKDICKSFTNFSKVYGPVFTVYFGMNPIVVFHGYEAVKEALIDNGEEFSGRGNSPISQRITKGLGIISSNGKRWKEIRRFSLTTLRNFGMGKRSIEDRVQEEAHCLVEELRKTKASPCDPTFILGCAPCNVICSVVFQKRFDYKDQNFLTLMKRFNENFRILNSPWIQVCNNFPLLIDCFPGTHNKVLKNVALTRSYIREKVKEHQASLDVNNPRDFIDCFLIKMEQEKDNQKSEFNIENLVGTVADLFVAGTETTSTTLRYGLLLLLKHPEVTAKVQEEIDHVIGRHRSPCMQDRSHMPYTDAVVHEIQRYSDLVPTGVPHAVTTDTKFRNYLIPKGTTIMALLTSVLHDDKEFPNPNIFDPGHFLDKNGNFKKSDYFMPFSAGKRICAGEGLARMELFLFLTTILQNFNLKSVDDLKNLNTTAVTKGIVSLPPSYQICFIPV

[15] = Stability in dog liver microsomes assessed as half life; type: ADME, Canis lupus familiaris, Microsome
[16] = system: MV4-11; assay: Antitumor activity against human MV4-11 cells expressing luciferase xenografted in NSG mouse assessed as increase in animal survival at 5 mg/kg, po administered daily for 3 weeks and measured for 66 days; type: functional, organism-based; conditions: time 66.0 day
[17] = system: MV4-11; assay: Antitumor activity against human MV4-11 cells xenografted in nu/nu mouse at 5 mg/kg, po administered daily for 2 weeks relative to control; type: functional; conditions: MV4-11, 336 h, read-out: TGI
[18] = target: T2, Cytochrome P450 2B6 (Homo sapiens, UniProt P20813); assay: Inhibition of CYP2B6 (unknown origin); type: ADME
T2 sequence (P20813 whole entry): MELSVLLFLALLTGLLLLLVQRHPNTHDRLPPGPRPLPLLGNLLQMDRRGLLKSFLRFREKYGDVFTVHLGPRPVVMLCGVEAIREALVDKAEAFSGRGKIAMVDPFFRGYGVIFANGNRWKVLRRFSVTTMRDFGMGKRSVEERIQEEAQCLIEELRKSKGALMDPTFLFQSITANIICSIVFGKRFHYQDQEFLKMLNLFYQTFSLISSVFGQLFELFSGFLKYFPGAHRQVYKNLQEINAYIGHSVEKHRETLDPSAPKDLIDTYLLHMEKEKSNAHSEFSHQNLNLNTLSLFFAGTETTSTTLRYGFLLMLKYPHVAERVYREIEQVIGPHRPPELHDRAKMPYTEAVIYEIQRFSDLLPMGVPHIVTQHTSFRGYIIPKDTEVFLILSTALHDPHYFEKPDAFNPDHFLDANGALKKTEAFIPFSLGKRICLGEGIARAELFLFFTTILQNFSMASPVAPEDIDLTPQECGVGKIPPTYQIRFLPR

[19] = Stability in monkey liver microsomes assessed as half life; type: ADME, Microsome; conditions: chlorocebus aethiops
[20] = system: MV4-11; assay: Antitumor activity against human MV4-11 cells expressing luciferase xenografted in NSG mouse assessed as increase in animal survival at 10 mg/kg, po administered daily for 3 weeks and measured for 77 days; type: functional, organism-based; conditions: time 77.0 day
[21] = system: BaF3; assay: Antiproliferative activity against mouse Ba/F3 cells expressing FLT3-ITD Y842H mutant incubated for 48 hrs by CCK8 assay; type: functional, cell-based; conditions: BaF3, 48 h
[22] = system: Protein cereblon/Receptor-type tyrosine-protein kinase FLT3 (Homo sapiens), P36888+Q96SW2 [UNDEFINED MUTATION]; assay: PROTAC activity at CRBN/FLT3-ITD mutant in human MV4-11 cells assessed as decrease in S6K level incubated for 12 hrs by Western blot analysis; type: cell-based; conditions: dose <= 20.0 nM
[23] = system: Protein cereblon/Receptor-type tyrosine-protein kinase FLT3 (Homo sapiens), P36888+Q96SW2 [UNDEFINED MUTATION]; assay: PROTAC activity at CRBN/FLT3-ITD mutant in human MOLM-13 cells assessed as protein degradation at 20 nM by Western blot analysis; type: cell-based; conditions: time <= 12.0 hrs, TDE = time-dependent effect
[24] = Stability in Sprague-Dawley rat intestinal fluid at 50 ug/ml incubated upto 8 hrs by LC-MS/MS analysis; type: ADME, tissue-based, Intestine; conditions: simulated gi fluid, at 50 µg/mL
[25] = Stability in rat liver microsomes assessed as half life; type: ADME, Microsome
[26] = target: Cytochrome P450 2C9 (Homo sapiens, UniProt P11712); assay: Inhibition of CYP2C9 (unknown origin); type: ADME
[27] = system: Protein cereblon/Receptor-type tyrosine-protein kinase FLT3 (Homo sapiens), P36888+Q96SW2 [UNDEFINED MUTATION]; assay: PROTAC activity at CRBN/FLT3-ITD mutant in human MOLM-13 cells assessed as decrease in S6K level at 20 nM by Western blot analysis; type: cell-based; conditions: time <= 12.0 hrs, TDE = time-dependent effect

Sequence of Protein cereblon/Receptor-type tyrosine-protein kinase FLT3 (Homo sapiens), P36888+Q96SW2 [UNDEFINED MUTATION] (P36888 whole entry, looked up, stated change not applied): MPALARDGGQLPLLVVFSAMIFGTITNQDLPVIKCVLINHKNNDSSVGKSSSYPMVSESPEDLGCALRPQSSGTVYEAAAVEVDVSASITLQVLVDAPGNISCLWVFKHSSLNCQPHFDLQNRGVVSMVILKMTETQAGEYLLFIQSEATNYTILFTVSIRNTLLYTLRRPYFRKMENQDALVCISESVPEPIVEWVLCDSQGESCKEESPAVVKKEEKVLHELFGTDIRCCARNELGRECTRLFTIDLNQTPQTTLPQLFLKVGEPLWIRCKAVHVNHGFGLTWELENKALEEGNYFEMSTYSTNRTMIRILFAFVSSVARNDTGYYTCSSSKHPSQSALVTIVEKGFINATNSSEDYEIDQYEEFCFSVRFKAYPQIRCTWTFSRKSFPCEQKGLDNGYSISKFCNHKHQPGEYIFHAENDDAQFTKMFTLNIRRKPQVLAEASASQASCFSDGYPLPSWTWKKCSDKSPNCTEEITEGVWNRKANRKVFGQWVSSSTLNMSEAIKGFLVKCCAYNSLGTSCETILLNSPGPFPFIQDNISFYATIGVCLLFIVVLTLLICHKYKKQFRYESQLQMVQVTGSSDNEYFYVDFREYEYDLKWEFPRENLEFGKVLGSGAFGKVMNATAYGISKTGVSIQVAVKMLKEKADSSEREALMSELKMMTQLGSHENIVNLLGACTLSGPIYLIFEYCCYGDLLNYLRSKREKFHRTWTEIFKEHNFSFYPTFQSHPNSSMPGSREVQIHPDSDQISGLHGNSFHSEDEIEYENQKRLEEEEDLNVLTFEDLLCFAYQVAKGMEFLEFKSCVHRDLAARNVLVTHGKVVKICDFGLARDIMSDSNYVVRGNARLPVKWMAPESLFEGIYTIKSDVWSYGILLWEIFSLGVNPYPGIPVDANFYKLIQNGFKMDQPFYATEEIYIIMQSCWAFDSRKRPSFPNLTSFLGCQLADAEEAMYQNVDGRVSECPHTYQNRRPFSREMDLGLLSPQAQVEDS
Sequence of Protein cereblon/Receptor-type tyrosine-protein kinase FLT3 (Homo sapiens), P36888+Q96SW2 [UNDEFINED MUTATION] (Q96SW2 whole entry, looked up, stated change not applied): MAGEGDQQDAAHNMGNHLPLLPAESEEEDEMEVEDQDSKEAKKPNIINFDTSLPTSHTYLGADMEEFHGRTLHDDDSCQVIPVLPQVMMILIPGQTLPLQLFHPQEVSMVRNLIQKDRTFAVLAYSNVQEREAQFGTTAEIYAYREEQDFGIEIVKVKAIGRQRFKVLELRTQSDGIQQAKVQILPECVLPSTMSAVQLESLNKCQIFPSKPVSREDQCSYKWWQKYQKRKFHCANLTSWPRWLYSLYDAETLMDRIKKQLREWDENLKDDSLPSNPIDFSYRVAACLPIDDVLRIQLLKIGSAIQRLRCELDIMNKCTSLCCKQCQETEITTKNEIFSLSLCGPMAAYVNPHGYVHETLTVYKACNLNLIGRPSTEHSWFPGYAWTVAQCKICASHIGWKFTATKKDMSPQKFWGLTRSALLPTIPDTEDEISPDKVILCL
Sequence of Cytochrome P450 2C9 (P11712 whole entry): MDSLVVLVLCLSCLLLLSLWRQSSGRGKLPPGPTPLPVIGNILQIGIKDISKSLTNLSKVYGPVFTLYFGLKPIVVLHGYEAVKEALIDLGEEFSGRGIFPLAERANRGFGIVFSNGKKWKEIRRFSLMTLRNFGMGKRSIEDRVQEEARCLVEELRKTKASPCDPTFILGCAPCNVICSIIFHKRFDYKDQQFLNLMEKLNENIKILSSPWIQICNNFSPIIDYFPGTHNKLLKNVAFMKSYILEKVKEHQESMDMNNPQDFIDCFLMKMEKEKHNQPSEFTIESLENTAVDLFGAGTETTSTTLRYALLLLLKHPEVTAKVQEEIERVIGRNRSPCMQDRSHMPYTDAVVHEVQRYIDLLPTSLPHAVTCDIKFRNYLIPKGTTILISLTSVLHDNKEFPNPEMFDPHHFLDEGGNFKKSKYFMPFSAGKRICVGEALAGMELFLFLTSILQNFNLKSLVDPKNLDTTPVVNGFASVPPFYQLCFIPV
Sequence of Protein cereblon/Receptor-type tyrosine-protein kinase FLT3 (P36888 whole entry, looked up, stated change not applied): as the sequence (P36888 whole entry, looked up, stated change not applied) above
Sequence of Protein cereblon/Receptor-type tyrosine-protein kinase FLT3 (Q96SW2 whole entry, looked up, stated change not applied): as the sequence (Q96SW2 whole entry, looked up, stated change not applied) above

Q: Which results are given for `Cc1c(NC(=O)CN2CCN(CC3CCN(c4ccc5c(c4)C(=O)N(C4CCC(=O)NC4=O)C5=O)CC3)CC2)c[nH]c1/C=C1\C(=O)Nc2ccc(F)cc21` (configuration not stated)?
A: Activity [1]: Dose-Dependent Effect; Activity [2]: Dose-Dependent Effect; CLhep predicted [3]: 11.3 mL/min/kg; Activity [4]: Non-Toxic; Activity [5]: Non-Toxic; DC50 [6]: 20.1 nM; pIC50 [7]: 6.32; Activity [8]: Tde; pIC50 [9]: 6.77; Activity [10]: Active; Activity [11]: Active; Activity [12]: Active; pIC50 [13]: 6.83; pIC50 [14]: < 4.30; half-life [15]: 1.88 h; Activity [16]: Active; inhibition in vivo at 5 mg/kg [17]: 97.5%; pIC50 [18]: < 4.30; half-life [19]: 0.615 h; Activity [20]: Active; pIC50 [21]: 7.33; Activity [22]: Dose-Dependent Effect; Activity [23]: Tde; Stability [24]: Stable; half-life [25]: 1.54 h; pIC50 [26]: < 4.30; Activity [27]: Tde
